Source: US10280159B2 (AbbVie Deutschland GmbH & Co. KG, priority 2015, dated 2019)
Where a name gives a salt, the structure may show the parent alone.

Experiments:
Format in all cases: cell-based
human S1PR5 = biological target: T1, human S1PR5 (Homo sapiens, UniProt Q9H228); assay: Intracellular Ca2+ release (FLIPR) agonist potency, S1P5; settings: recombinant CHO-K1 cells expressing human S1PR5, aequorin, Gq/i5; Calcium 5 FLIPR; read-out: S1P5 EC50 range
T1 construct: host or cells: CHO-K1
Outline: (§1)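 Agonist potency from intracellular Ca²⁺ release measured by FLIPR, with EC50 fitted after normalization to phospho-fingolimod curves. Recombinant CHO-K1 lines co-expressing the respective human S1P receptor, aequorin and Gq/i5.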

human S1PR3 = biological target: T2, human S1PR3 (Homo sapiens, UniProt Q99500); assay: Intracellular Ca2+ release (FLIPR) agonist potency, S1P3; settings: recombinant CHO-K1 cells expressing human S1PR3, aequorin, Gq/i5; Calcium 5 FLIPR; read-out: S1P3 EC50
T2 construct: host or cells: CHO-K1
Experimental: Agonistic activity was measured using the method described below.
Intracellular Ca^2+ Release
Agonist potency and intrinsic activity was assessed by measurement of intracellular Ca^2+ release. Recombinant CHO-K1 cells (Euroscreen, Brussels, Belgium) expressing human S1PR5, S1PR1, S1PR3 or S1PR4 receptors, aequorin, and GTP binding protein Gq/i5 were cultured using a medium containing nutrient mixture F-12 Ham (Sigma-Aldrich) with 10% FBS, and 100 μg/mL gentamicin and equilibrated at 5% CO2.
Phospho-fingolimod was used as positive control. Antagonists were pre-incubated for 10 min with cells before addition of the agonist (phospho-fingolimod at EC80). Measurements were performed using a fluorometric imaging plate reader FLIPR®tetra (Molecular Devices). Agonist at the human S1P receptors were characterized by deducing EC50 (potency) values from a nonlinear fit to the measured fluorescence raw data after normalization to the reference agonist (phospho-fingolimod) curve.

human S1PR4 = biological target: T3, human S1PR4 (Homo sapiens, UniProt O95977); assay: Intracellular Ca2+ release (FLIPR) agonist potency, S1P4; settings: recombinant CHO-K1 cells expressing human S1PR4, aequorin, Gq/i5; Calcium 5 FLIPR; read-out: S1P4 EC50
T3 construct: host or cells: CHO-K1
T3 sequence (O95977 1-384): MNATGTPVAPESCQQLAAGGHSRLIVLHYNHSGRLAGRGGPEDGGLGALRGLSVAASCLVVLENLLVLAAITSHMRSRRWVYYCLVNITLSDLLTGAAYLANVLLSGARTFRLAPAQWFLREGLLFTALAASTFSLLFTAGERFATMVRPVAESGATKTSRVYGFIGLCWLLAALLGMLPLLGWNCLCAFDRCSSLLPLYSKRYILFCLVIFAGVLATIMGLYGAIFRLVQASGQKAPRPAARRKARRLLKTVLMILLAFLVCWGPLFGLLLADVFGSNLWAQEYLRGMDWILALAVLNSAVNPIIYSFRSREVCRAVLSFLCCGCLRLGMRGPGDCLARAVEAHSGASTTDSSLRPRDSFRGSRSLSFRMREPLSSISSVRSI
Outline: as §1

human S1PR1 = biological target: T4, human S1PR1 (Homo sapiens, UniProt P21453); assay: Intracellular Ca2+ release (FLIPR) agonist potency, S1P1; settings: recombinant CHO-K1 cells expressing human S1PR1, aequorin, Gq/i5; Calcium 5 FLIPR; read-out: S1P1 EC50
T4 construct: host or cells: CHO-K1
Outline: as §1

T2 sequence (Q99500 whole entry): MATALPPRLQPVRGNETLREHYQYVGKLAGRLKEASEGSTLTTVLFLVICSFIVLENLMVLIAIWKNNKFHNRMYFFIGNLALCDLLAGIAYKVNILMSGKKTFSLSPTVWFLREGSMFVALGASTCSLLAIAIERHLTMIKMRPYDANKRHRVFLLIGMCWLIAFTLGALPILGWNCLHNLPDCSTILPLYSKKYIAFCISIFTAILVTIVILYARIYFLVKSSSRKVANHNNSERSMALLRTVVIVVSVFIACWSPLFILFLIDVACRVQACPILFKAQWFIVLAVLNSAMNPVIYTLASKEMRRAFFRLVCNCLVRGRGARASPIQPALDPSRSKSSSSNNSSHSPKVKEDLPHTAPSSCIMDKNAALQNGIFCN
T4 sequence (P21453 whole entry): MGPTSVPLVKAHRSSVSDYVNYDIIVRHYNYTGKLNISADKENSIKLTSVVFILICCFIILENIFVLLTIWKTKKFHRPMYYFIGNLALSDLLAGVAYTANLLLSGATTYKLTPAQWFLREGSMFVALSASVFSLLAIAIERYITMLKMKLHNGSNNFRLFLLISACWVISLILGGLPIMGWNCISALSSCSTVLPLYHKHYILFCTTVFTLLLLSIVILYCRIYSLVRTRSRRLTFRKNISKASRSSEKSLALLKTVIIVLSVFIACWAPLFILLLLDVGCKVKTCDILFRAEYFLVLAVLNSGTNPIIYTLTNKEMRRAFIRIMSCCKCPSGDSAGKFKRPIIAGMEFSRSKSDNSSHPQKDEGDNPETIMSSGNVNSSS
T1 sequence (Q9H228 whole entry): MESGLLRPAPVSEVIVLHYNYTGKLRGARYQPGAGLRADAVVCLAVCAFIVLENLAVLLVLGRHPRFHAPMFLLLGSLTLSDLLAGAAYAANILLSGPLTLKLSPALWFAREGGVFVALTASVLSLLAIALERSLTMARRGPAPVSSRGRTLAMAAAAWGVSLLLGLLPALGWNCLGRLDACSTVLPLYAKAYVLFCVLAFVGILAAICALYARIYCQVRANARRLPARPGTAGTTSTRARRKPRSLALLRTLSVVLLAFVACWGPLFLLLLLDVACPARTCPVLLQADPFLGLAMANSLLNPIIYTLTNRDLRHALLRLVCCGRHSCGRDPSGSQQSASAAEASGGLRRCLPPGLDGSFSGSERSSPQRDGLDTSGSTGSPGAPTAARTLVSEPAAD

Row | EC50 (human S1PR5) [µM] | EC50 (human S1PR3) [µM] | EC50 (human S1PR4) [µM] | EC50 (human S1PR1) [µM] | Compound
1 | 0.01 to 0.1 | > 1 | > 1 | < 1 | CN(CC(=O)O)C1COc2cc(-c3ccc(OCc4ccccc4)cc3)ccc2C1 (centres unmarked) [Compound 238, 2-((7-(4-(benzyloxy)phenyl)chroman-3-yl)(methyl)amino)acetic acid]
2 | 0.01 to 0.1 | > 1 | > 1 | < 1 | O=C(O)C1CN(C2COc3cc(-c4ccc(OCc5cccc(F)c5F)cc4)ccc3C2)C1 (centres unmarked) [Compound 56, 1-(7-(4-((2,3-difluorobenzyl)oxy)phenyl)chroman-3-yl)azetidine-3-carboxylic acid]
3 | < 0.01 | > 1 | < 1 | < 1 | CCc1cccc(Cl)c1COc1ccc2c(c1)CCC1C2OCCN1CCC(=O)O (centres unmarked) [Compound 82, 3-(8-((2-chloro-6-ethylbenzyl)oxy)-5,6-dihydro-2H-naphtho[1,2-b][1,4]oxazin-4(3H,4aH,10bH)-yl)propanoic acid hydrochloride]
4 | < 0.01 | > 1 | < 1 | > 1 | CCc1cccc(Cl)c1COc1ccc2c(c1)OCC(NCC(=O)O)C2 (centres unmarked) [Compound 34, 2-((7-((2-chloro-6-ethylbenzyl)oxy)chroman-3-yl)amino)acetic acid]
5 | < 0.01 | > 1 | < 1 | < 1 | O=C(O)C1CCN(C2CCc3cc(OCc4c(Cl)cccc4Cl)ccc3C2)CC1 (centres unmarked) [Compound 31, 1-(6-((2,6-dichlorobenzyl)oxy)-1,2,3,4-tetrahydronaphthalen-2-yl)piperidine-4-carboxylic acid]
6 | 0.01 to 0.1 | > 1 | < 1 | > 1 | O=C(O)C1CN(C2COc3cc(C#Cc4cccc(Cl)c4)ccc3C2)C1 (centres unmarked) [Compound 40, 1-(7-((3-chlorophenyl)ethynyl)chroman-3-yl)azetidine-3-carboxylic acid]
7 | 0.01 to 0.1 | > 1 | > 1 | > 1 | O=C(O)C1CN(C2COc3cc(C#Cc4ccccc4OC(F)F)ccc3C2)C1 (centres unmarked) [Compound 42, 1-(7-((2-(difluoromethoxy)phenyl)ethynyl)chroman-3-yl)azetidine-3-carboxylic acid]
8 | < 0.01 | > 1 | < 1 | < 1 | CCc1cccc(Cl)c1COc1ccc2c(c1)CCC(NCC(=O)O)C2 (centres unmarked) [Compound 73, 2-((6-((2-chloro-6-ethylbenzyl)oxy)-1,2,3,4-tetrahydronaphthalen-2-yl)amino)acetic acid]
9 | < 0.01 | > 1 | < 1 | > 1 | CN(CCC(=O)O)C1CCc2cc(C#Cc3cc(F)cc(F)c3)ccc2C1 (centres unmarked) [Compound 15, 3-((6-((3,5-difluorophenyl)ethynyl)-1,2,3,4-tetrahydronaphthalen-2-yl)(methyl)amino)propanoic acid]
10 | 0.01 to 0.1 | > 1 | > 1 | > 1 | CC(C)(C)c1ccc(COc2ccc3c(c2)CCC(OCC(=O)O)C3)cc1 (centres unmarked) [Compound 211, 2-[6-[(4-tert-butylphenyl)methoxy]tetralin-2-yl]oxyacetic acid]
11 | 0.01 to 0.1 | > 1 | > 1 | > 1 | O=C(O)C1CN(C2COc3cc(C#Cc4ccccc4C(F)(F)F)ccc3C2)C1 (centres unmarked) [Compound 41, 1-(7-((2-(trifluoromethyl)phenyl)ethynyl)chroman-3-yl)azetidine-3-carboxylic acid]
12 | < 0.01 | > 1 | < 1 | > 1 | O=C(O)CCNC1CCc2cc(C#Cc3c(Cl)cccc3Cl)ccc2C1 (centres unmarked) [Compound 12, 3-((6-((2,6-dichlorophenyl)ethynyl)-1,2,3,4-tetrahydronaphthalen-2-yl)amino)propanoic acid]
13 | < 0.01 | > 1 | < 1 | > 1 | O=C(O)CCNC1CCc2cc(/C=C/c3cccc(Cl)c3)ccc2C1 (centres unmarked) [Compound 20, (E)-3-((6-(3-chlorostyryl)-1,2,3,4-tetrahydronaphthalen-2-yl)amino)-propanoic acid]
14 | 1 to 10 | > 1 | > 1 | > 1 | O=C(O)C1CN(C2COc3cc(CCc4cc(F)cc(F)c4)ccc3C2)C1 (centres unmarked) [Compound 81, 1-(7-(3,5-difluorophenethyl)chroman-3-yl)azetidine-3-carboxylic acid]
15 | < 0.01 | > 1 | < 1 | > 1 | CC(NC1CCc2cc(OCc3c(Cl)cccc3Cl)ccc2C1)C(=O)O (centres unmarked) [Compound 33, 2-((6-((2,6-dichlorobenzyl)oxy)-1,2,3,4-tetrahydronaphthalen-2-yl)amino)propanoic acid]
16 | < 0.01 | > 1 | < 1 | > 1 | O=C(O)CNC1CCc2cc(C#Cc3cc(F)cc(F)c3)ccc2C1 (centres unmarked) [Compound 28, 2-((6-((3,5-difluorophenyl)ethynyl)-1,2,3,4-tetrahydronaphthalen-2-yl)amino)acetic acid]
17 | < 0.01 | > 1 | < 1 | > 1 | O=C(O)CNC1CCc2cc(C#Cc3c(Cl)cccc3Cl)ccc2C1 (centres unmarked) [Compound 29, 2-((6-((2,6-dichlorophenyl)ethynyl)-1,2,3,4-tetrahydronaphthalen-2-yl)amino)acetic acid]
18 | 0.01 to 0.1 | > 1 | > 1 | > 1 | O=C(O)C1CN(C2COc3cc(C#Cc4c(Cl)cccc4Cl)ccc3C2)C1 (centres unmarked) [Compound 44, 1-(7-((2,6-dichlorophenyl)ethynyl)chroman-3-yl)azetidine-3-carboxylic acid]
19 | < 0.01 | > 1 | < 1 | > 1 | O=C(O)CNC1CCc2cc(C#CC3CCCCC3)ccc2C1 (centres unmarked) [Compound 30, 2-((6-(cyclohexylethynyl)-1,2,3,4-tetrahydronaphthalen-2-yl)amino)acetic acid]
20 | 0.01 to 0.1 | > 1 | > 1 | > 1 | O=C(O)C1CN(C2COc3cc(OCCc4c(Cl)cccc4Cl)ccc3C2)C1 (centres unmarked) [Compound 69, 1-(7-(2,6-dichlorophenethoxy)chroman-3-yl)azetidine-3-carboxylic acid]
21 | < 0.01 | > 1 | < 1 | < 1 | O=C(O)[C@H]1C[C@H](NC2CCc3cc(OCc4c(Cl)cccc4Cl)ccc3C2)C1 (some centres unmarked) [Compound 79, (1r,3r)-3-((6-((2,6-dichlorobenzyl)oxy)-1,2,3,4-tetrahydronaphthalen-2-yl)amino)cyclobutanecarboxylic acid]
22 | < 0.01 | > 1 | < 1 | > 1 | CCc1cccc(Cl)c1COc1ccc2c(c1)CCC(NCC(=O)NO)C2 (centres unmarked) [Compound 236, 2-((6-((2-chloro-6-ethylbenzyl)oxy)-1,2,3,4-tetrahydronaphthalen-2-yl)amino)acetohydroxamic acid]
23 | < 0.01 | > 1 | < 1 | < 1 | O=C(O)[C@H]1C[C@@H](NC2CCc3cc(OCc4c(Cl)cccc4Cl)ccc3C2)C1 (some centres unmarked) [Compound 77, (1 s,3s)-3-((6-((2,6-dichlorobenzyl)oxy)-1,2,3,4-tetrahydronaphthalen-2-yl)amino)cyclobutanecarboxylic acid]
